# Data reported in patent US20230190761A1, “METHYLENE BLUE STABILIZED MRNA COMPOSITIONS” (ModernaTX, Inc., priority 2020, published 2023).
# “And” between values parts separate entries of the source, which are not always exact repeats. Identical values can stand only once. “Also recorded” adds a separate entry of the source.
# Tests used:
# mRNA [1] = test: Circular dichroism of mRNA with methylene blue; format: physicochemical; conditions: addition of methylene blue (210 μM, 367 μM)
# Source text: The effect of methylene blue on the conformational state of mRNA is also apparent from the circular dichroism (CD) spectra shown in FIG. 20. The CD bands correspond to the intrinsic CD of the mRNA itself. […] The stabilizing effect of methylene blue observed on mRNA may be attributed to this binding and conformational stabilization evident from the DSC thermograms (FIGS. 18 and 19).
# mRNA-LNP [2] = test: DLS characterization of mRNA-LNP physical stability in presence of methylene blue; format: physicochemical
# Source text: Particle size (e.g., particle diameter) can be determined by Dynamic Light Scattering (DLS). DLS measures a hydrodynamic diameter. Smaller particles diffuse more quickly, leading to faster fluctuations in the scattering intensity and shorter decay times for the autocorrelation function. Larger particles diffuse more slowly, leading to slower fluctuations in the scattering intensity and longer decay times in the autocorrelation function.
# In view of the surprising and somewhat counter-intuitive finding that methylene blue enhanced stability of mRNA-LNP formulations, additional experimentation was conducted. The stability of mRNA-LNPs in the presence of increasing levels of methylene blue was investigated upon incubation at 5° C., 25° C. or 40° C. for 10 days. […] In addition to chemical stability, a careful examination of the possible impact of methylene blue on the physical state of the LNP was performed using dynamic light scattering (DLS). This technique is exquisitely sensitive to tiny changes in hydrodynamic nanoparticle size, especially with respect to the formation of larger aggregates known to be a common physical degradation mode of many LNPs.
# After the 3 week incubation, samples were analyzed by dynamic light scattering (DLS) to characterize the hydrodynamic diameters of LNPs.
# Samples were measured by dynamic light scattering (DLS) in PBS after being filtered through 0.8 μm filters to remove large particulates.
# mRNA [3] = test: ITC of dye-mRNA interaction; format: binding
# mRNA [4] = test: DLS of methylene blue-mRNA interaction; format: physicochemical; conditions: methylene blue concentrations in the 10 μM range; data not shown
# Source text: The images in FIG. 22 show the effect of thionine on mRNA-LNPs. […] The significant protection against fragmentation and adduct formation conferred by the compounds disclosed herein may be based on this effect on nucleic acid conformational state.
# [5] = system: mRNA in LNP formulation containing two mRNA; test: Chemical stability of mRNA-LNP after 5 months refrigerated storage; format: physicochemical
# Procedure: This example relates to stabilization of mRNA in LNP formulations by the addition of methylene blue over long-term refrigerated storage. […] To confirm that this stabilization effect would also occur with long-term refrigerated storage, a study was conducted to evaluate the effect of various concentrations of methylene blue (0, 0.5, 1, 1.5 and 2.0 mM) on the stability of a lipid nanoparticle formulation containing two distinct mRNA compounds stored at 5° C.
# To determine the effects of methylene blue on the chemical stability of mRNA-LNP formulations over long-term refrigerated storage, mRNA purity, mRNA fragmentation, and mRNA-lipid adduct formation were measured over time in mRNA-LNP samples containing varying concentrations of methylene blue (A=0 mM, B=0.5 mM, C=1.0 mM, D=1.5 mM, E=2.0 mM methylene blue). Total purity was determined according to main peak percentage by RP-HPLC (FIG. 13A), fragmentation was determined according to fragmentation analysis (FIG. 13B), and mRNA-lipid adduct formation was determined according to RP-HPLC (FIG. 13C).
# [6] = system: mRNA within LNP formulations; test: Screen of molecular dyes on mRNA stability within LNP formulations (RP-HPLC); format: physicochemical
# Procedure: This example discusses the effects of various dye molecules on mRNA stability within LNP formulations. To evaluate the potential stabilization effects of dyes, LNP compositions were prepared containing 2 mM of one of 25 dyes. After incubation for 4 days at 40° C., main peak mRNA purity was measured by RP-HPLC. Variance within this study was estimated from three independent sample replicates with no dye (Sample IDs D0a, D0b and D0c as shown in Table 4) or with 2 mM methylene blue (Sample IDs D1a, D1b and D1c as shown in Table 4). […] The main peak purity measured in each mRNA-LNP formulation, as well as its difference relative to the no dye controls is shown in Table 4. Positive differences relative to no dye represent improvements in mRNA stability, and negative differences represent worsened mRNA stability.
# mRNA-LNP [7] = test: DOE study of solution composition with and without methylene blue, main peak purity by RP-HPLC; format: physicochemical; conditions: 2 mM methylene blue, 40° C. ~1 week
# Source text: To broadly evaluate the effect of methylene blue under a large number of systematically varied solution conditions, a design of experiment (DOE) approach was utilized.
# [8] = system: mRNA encapsulated within LNPs; test: mRNA-LNP stability with thionine or methylene blue, main peak purity by fragmentation analysis; format: physicochemical; conditions: mRNA-LNP with incremental dye 0.01-1.5 mM, 3 weeks at room temperature and 40° C., relative to no dye
# Source text: mRNA purity can be determined by reverse phase high-performance liquid chromatography (RP-HPLC) size based separation. This method can be used to assess mRNA integrity by a length-based gradient RP separation and UV detection of RNA at 260 nm. As used herein “main peak” or “main peak purity” refers to the RP-HPLC signal detected from mRNA that corresponds to the full size mRNA molecule loaded within a given LNP formulation. mRNA purity can also be assessed by fragmentation analysis. Fragmentation analysis (FA) is a method by which nucleic acid (e.g., mRNA) fragments can be analyzed by capillary electrophoresis. Fragmentation analysis involves sizing and quantifying nucleic acids (e.g., mRNA), for example by using an intercalating dye coupled with an LED light source. Such analysis may be completed, for example, with a Fragment Analyzer from Advanced Analytical Technologies, Inc.
# A study was performed to compare the effects of thionine, a phenothiazinium dye that permeates LNPs, with methylene blue which permeates LNPs to a lesser extent. A series of mRNA-LNP samples were prepared containing incremental levels of each dye as detailed in Table 1. These samples were incubated under two temperature conditions of room temperature and 40 C for 3 weeks prior to analysis.
smiles,measurement,setting,value
CN(C)c1ccc2nc3ccc(N(C)C)cc3[s+]c2c1 [methylene blue],intrinsic CD bands of mRNA,mRNA [1],significant perturbation in these bands
same,LNP size distributions and average hydrodynamic diameters by DLS,"mRNA-LNP [2]; 0.5-2.0 mM methylene blue, 3 weeks refrigerated storage",does not have an impact on the overall lipid nanoparticle structure
same,hydrodynamic size or size distribution (polydispersity index) of LNP by DLS,"mRNA-LNP [2]; up to 2.0 mM methylene blue, 5 months refrigerated storage",no significant impact
same,hydrodynamic size / physical stability of the LNP by DLS,"mRNA-LNP [2]; up to 6 mM methylene blue, 10 days at 5° C., 25° C. and 40° C.",no significant effect on hydrodynamic size of the LNP; also recorded: no impact on the physical stability of the mRNA-LNP
same,dissociation constant for the dye-mRNA interaction (ITC),mRNA [3],μm dissociation constant
same,mRNA hydrodynamic radii (DLS),mRNA [4],measurable decrease in mRNA hydrodynamic radii
same,optimal methylene blue concentration with respect to adduct formation,"[5]; 5 months refrigerated storage, RP-HPLC",1.5 mM
same,mRNA fragmentation rate,"[5]; methylene blue as low as 0.5 mM, 5 months (151 days) refrigerated storage",significantly inhibit mRNA fragmentation rate relative to LNP compositions lacking dye; also recorded: significantly inhibited relative to control
same,Main Peak Purity after 4 days at 40° C. (%),"[6]; 2 mM dye in mRNA-LNP, RP-HPLC, no value (—) = physically unstable, no reliable chromatographic result, interpreted as destabilizing",89.62% and 90.27% and 85.96%
same,Mean (Main Peak Purity after 4 days at 40° C.),"[6]; 2 mM dye, three independent sample replicates",89 ± 2%
same,Difference relative to No Dye,"[6]; main peak purity, 2 mM dye, 4 days at 40° C., ±4% interpreted as significant",14%
same,average purity of the 14 samples,mRNA-LNP [7]; 14 buffer/pH/NaCl conditions,60±6%
same,main peak mRNA purity (range over samples 15-28),"mRNA-LNP [7]; Tris or phosphate buffer pH 7.0-8.5, 0 or 150 mM NaCl, RP-HPLC",50-70%
same,% main peak purity by fragmentation analysis (mRNA stability),[8],stabilized it; also recorded: significantly improved mRNA stability relative to the no-dye control
